The target of one assay is T1, Protein RecA (Mycobacterium tuberculosis, UniProt P9WHJ3).
T1 sequence (P9WHJ3 whole entry): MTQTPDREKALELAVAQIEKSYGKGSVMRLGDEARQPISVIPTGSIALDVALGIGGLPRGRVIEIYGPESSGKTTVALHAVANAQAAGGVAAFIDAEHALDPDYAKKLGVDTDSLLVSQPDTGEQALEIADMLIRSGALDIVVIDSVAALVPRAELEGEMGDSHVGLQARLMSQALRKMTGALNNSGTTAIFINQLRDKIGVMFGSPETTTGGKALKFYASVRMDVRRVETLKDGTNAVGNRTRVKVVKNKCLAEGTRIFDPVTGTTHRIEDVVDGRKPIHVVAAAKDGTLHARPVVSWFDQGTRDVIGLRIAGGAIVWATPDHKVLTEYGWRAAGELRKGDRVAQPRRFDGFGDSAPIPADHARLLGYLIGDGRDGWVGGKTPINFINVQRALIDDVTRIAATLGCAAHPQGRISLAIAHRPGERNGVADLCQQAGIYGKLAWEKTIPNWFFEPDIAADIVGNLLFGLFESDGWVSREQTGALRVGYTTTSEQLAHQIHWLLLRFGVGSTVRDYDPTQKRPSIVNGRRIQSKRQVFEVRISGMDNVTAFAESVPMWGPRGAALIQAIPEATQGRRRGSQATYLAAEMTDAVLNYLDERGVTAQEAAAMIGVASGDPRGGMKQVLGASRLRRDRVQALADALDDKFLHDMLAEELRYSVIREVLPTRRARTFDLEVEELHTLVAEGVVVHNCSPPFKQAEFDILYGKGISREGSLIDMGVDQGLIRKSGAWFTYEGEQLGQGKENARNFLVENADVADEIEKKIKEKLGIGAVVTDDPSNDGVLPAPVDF
The assay can be described thus: Fluorescence Cell-Free Homogeneous Dose Retest to Identify Inhibitors of RecA-Intein Splicing Activity. [Related pubchem assays (depositor defined):AID2097, AID2223, AID489010, AID492950]. Format: functional.

Assay [1] has as its target T2, Replicative DNA helicase DnaB (Mycobacterium tuberculosis, UniProt P9WMR3).
T2 sequence (P9WMR3 whole entry): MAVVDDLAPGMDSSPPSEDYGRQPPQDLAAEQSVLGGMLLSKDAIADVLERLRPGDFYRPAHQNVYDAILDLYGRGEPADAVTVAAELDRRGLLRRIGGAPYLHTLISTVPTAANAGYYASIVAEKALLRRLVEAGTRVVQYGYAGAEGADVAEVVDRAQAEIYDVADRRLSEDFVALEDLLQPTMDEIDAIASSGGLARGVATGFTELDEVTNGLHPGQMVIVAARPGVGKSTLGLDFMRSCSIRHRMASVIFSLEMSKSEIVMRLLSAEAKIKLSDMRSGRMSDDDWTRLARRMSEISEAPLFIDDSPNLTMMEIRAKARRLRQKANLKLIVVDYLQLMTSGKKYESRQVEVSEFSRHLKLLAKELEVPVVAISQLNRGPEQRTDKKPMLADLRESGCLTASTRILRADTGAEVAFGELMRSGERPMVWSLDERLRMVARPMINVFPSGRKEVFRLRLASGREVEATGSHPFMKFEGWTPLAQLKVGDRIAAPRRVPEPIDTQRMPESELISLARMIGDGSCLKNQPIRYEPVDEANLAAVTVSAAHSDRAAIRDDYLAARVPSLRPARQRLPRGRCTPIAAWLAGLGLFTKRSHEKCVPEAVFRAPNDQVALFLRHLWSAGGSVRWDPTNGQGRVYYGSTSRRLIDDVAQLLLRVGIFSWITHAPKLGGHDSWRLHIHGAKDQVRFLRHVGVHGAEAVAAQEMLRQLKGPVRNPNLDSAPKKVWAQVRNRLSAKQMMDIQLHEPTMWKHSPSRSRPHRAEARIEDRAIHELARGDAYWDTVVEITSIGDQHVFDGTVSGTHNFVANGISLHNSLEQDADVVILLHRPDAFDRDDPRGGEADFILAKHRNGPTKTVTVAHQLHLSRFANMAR
Briefly: DnaB intein splicing inhibitors, dose response, biochemical, cell-free fluorescence (AID 449749). Type of assay: functional.

A further assay addresses T3, Protein skinhead-1 (Caenorhabditis elegans, UniProt P34707).
T3 sequence (P34707 whole entry): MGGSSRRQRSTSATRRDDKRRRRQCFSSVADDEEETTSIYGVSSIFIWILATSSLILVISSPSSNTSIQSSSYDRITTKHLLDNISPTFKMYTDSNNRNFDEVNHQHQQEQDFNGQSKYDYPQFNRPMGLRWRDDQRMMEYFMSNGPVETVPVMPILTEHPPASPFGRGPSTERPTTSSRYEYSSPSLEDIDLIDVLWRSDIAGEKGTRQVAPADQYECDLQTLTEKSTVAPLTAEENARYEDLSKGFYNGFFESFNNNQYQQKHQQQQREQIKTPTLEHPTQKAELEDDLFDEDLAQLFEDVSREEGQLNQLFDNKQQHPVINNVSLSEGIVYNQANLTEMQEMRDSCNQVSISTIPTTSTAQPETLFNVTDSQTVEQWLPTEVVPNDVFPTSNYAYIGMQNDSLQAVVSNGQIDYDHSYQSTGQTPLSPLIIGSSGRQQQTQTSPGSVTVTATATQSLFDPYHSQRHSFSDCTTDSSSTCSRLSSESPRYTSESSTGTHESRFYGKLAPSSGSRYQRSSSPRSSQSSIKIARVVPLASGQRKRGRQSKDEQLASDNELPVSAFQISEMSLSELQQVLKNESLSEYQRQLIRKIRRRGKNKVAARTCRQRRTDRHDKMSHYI
Type of assay: functional.

Assay [2] addresses T4, Polyadenylate-binding protein 1 (Homo sapiens, UniProt P11940). Briefly: PABP1 MLLE–PAM2 binding inhibitor potency, dose response, biochemical, fluorescence polarization, FITC-PAM2 peptide (AID 602259). Type of assay: functional. Conditions: read-out: IC50_Mean. Background: In fluorescence polarisation assays a small probe gives low polarisation when free and higher when bound to something large.

Assay [3] deals with T4, Polyadenylate-binding protein 1. Briefly: PABP1 MLLE–PAM2 interaction inhibitors, dose response, miRNA deadenylation inhibitor project, biochemical, fluorescence polarization, Cy5-PAM2 peptide, secondary (AID 602260). The note with it: read-out: IC50_Mean. Type of assay: functional.
Assay [4] concerns the target T5, Zinc finger protein mex-5 (Caenorhabditis elegans, UniProt Q9XUB2).
T5 sequence (Q9XUB2 whole entry): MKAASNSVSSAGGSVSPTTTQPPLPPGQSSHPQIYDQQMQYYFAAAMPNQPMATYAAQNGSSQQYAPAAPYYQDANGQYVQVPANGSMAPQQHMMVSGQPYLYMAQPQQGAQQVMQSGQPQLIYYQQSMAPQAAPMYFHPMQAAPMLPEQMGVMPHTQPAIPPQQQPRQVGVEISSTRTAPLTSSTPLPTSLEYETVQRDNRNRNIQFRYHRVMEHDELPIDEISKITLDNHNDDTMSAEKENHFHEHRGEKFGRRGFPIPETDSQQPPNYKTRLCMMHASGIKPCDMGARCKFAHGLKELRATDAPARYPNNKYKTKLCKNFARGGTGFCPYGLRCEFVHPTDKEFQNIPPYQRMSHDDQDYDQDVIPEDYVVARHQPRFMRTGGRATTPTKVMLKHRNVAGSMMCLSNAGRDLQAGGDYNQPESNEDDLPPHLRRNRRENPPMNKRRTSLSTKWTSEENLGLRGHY
Briefly: MEX-5/TCR-2 RNA interaction inhibitors, dose response, biochemical, C. elegans, fluorescence polarization (AID 1960).

The target in assay [5] is T6, RNA-binding protein pos-1 (Caenorhabditis elegans, UniProt G5EF15).
T6 sequence (G5EF15 whole entry): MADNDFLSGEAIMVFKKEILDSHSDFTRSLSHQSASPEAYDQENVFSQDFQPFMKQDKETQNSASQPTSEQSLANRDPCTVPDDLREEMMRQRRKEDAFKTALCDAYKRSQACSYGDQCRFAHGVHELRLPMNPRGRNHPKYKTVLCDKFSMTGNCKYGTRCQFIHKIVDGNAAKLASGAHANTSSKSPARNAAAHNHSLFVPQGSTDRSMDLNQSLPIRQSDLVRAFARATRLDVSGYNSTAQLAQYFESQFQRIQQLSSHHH
Briefly: inhibitors of POS-1/mex-3 RNA binding, dose response, biochemical, fluorescence polarization (AID 1964).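 Note: purified POS-1 fused to maltose binding protein made in E. coli; potency of compounds blocking POS-1 binding to fluorescent RNA.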

Assay [6] has as its target T7, Heat shock factor protein 1 (Mus musculus, UniProt P38532).
T7 sequence (P38532 whole entry): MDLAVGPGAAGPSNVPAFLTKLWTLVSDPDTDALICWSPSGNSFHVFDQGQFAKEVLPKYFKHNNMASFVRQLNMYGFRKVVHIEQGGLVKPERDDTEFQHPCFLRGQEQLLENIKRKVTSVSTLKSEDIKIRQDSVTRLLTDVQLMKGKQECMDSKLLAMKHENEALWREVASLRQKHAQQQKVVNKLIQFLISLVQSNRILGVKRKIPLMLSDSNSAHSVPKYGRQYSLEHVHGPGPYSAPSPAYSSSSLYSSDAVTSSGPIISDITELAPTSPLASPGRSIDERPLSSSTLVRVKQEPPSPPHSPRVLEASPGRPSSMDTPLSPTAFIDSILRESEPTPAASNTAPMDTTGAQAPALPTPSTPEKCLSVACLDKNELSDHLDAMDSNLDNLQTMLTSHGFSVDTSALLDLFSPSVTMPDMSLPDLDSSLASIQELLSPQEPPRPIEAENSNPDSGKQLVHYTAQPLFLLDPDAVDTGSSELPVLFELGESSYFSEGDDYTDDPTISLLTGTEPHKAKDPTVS
The assay can be described thus: inhibition of MG132-induced HSE-luciferase signal, confirmation, cell-based, NIH3T3, luminescence, dose retest (AID 2382).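 Note: NIH3T3 fibroblasts with HSF1-driven luciferase reporter stressed by proteasome inhibitor MG132; luminescence from HSF1-driven luciferase expression after 8 hours of MG132 stress.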 Format: functional.

This note sets out measurements from ChEMBL document CHEMBL1201862, “PubChem BioAssay data set” (2004).

Activity calls are given as the source filed them.

T4 sequence (P11940 whole entry): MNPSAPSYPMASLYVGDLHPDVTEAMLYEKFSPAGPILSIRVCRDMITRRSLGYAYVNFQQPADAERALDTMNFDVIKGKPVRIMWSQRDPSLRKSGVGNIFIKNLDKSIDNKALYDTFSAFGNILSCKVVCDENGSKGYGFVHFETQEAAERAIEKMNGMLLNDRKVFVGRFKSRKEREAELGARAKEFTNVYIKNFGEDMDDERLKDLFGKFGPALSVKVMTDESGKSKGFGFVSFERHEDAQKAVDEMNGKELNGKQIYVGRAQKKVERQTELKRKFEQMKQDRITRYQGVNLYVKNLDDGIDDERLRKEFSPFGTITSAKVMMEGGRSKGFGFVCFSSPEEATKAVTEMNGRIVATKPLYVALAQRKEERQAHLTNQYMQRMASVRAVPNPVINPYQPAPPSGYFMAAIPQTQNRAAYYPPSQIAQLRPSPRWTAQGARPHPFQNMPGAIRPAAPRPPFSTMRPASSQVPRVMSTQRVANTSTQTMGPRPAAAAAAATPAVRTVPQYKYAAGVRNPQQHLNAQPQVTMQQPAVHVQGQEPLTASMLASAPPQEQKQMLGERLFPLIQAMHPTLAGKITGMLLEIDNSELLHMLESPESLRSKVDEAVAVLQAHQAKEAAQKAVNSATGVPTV

As for `COc1ccc(-c2c(=O)n(OC)c3ccccc3[n+]2[O-])cc1OC`, the EC50 – broadly, the midpoint of the concentration-response curve – on Protein RecA was > 380 µM (inactive). For the same compound, the AC50 (in general, the concentration giving half of the maximal activity seen) in assay [1] is > 380 µM (inactive).

On to `CC1=NN(c2ccccc2)C(=O)/C1=C\c1c[nH]nc1-c1ccccc1`, for which the EC50 at Protein RecA is 2.54 µM (active). Also, the AC50 in assay [1] is 4.1 µM (active).

For `C(=C\c1nc(-c2ccncc2)no1)/c1ccccc1`, the IC50 at Protein skinhead-1 was 12.4 µM (active).

As for `CC1(C)CC2=C(CO1)C(S)=NC(c1ccccc1)N2CC1CCCO1` (stereo unspecified), the IC50 in assay [2] and in assay [3] was > 66 µM (inactive) each time.

On to `S=C(c1ccc(Cl)cc1)N1CCOCC1` [(4-CHLOROPHENYL)(MORPHOLINO)METHANETHIONE], for which the IC50 in assay [2] and in assay [3] was > 66 µM (inactive) each time.

As to `COc1ccc(OCCCC(=O)OCC(=O)Nc2ncc(Cl)cc2Cl)cc1`, the IC50 in assay [2] is 30.3 µM (inactive); in assay [3] it was > 66 µM (inactive).

On to `COc1ccc(NC(=O)C2Cc3ccccc3CN2C(=O)c2ccccc2)cn1` (stereo unspecified), for which the figures for the EC50 in assay [4] and in assay [5] were > 300 µM (inconclusive) and 25.1 µM (active), respectively. Also, the IC50 in assay [2] was 13.1 µM (active); in assay [3], > 66 µM (inactive).

As for `Cc1[nH]nc2c1C1(CCC(c3ccccc3)CC1)C(C#N)=C(N)O2` (stereo unspecified), the EC50 at Protein RecA is 1.51 µM (active). Moreover, the concentration at half-maximal activity (AC50) in assay [1] is 5.82 µM (active).

For `COc1cc(NC(S)=Nc2ccc(N(C)C(C)=O)cc2)cc(OC)c1`, the IC50 in assay [2] and in assay [3] was > 66 µM (inactive) in each case.

As to `COc1cc(C2C(C#N)=C(N)Oc3c2c(-c2ccccc2)nn3-c2ccccc2)cc(OC)c1OC` (stereo unspecified), the EC50 on Protein RecA was 27.9 µM (active). Also, in assay [1], the AC50 is 26.8 µM (active).

In the case of `COc1ccc(C(=O)NC(=S)NC2CCSC2=O)cc1` (stereo unspecified), the IC50 in assay [2] and in assay [3] was > 66 µM (inactive) each time.

As for `Cn1c(=O)c2c(O)cc(N)nc2n(C)c1=O`, the results for the IC50 in assay [2] and in assay [3] were 56.2 µM (inactive) and > 66 µM (inactive), respectively.

Regarding `CCCn1c(=C(C#N)C#N)s/c(=C2\C=Cc3ccccc3N2CC)c1=O`, the IC50 in assay [2] and in assay [3] was > 66 µM (inactive) each time.

For `COCC(=O)NCc1ccc2c(c1)cc(C)n2C`, the IC50 on Protein skinhead-1 is > 100 µM (inactive).

As for `COCc1n[nH]c2c1C1(CCSCC1)C(C#N)=C(N)O2`, the EC50 on Protein RecA was 2.26 µM (active); in assay [6], > 195 µM (not active). The AC50 in assay [1] is 18.5 µM (active).

As for `COc1ccc(CN2CCN(c3ccccc3F)CC2)cc1O`, the IC50 at Protein skinhead-1 was > 100 µM (inactive).

Turning to `Cc1nc(NS(=O)(=O)c2ccccc2)sc1NC(=O)OC(C)C`, the IC50 in assay [2] and in assay [3] was > 66 µM (inactive) each time.

For `Cn1/c(=N/C(=O)C2CC2)sc2cc(F)cc(F)c21`, the IC50 at Protein skinhead-1 was > 100 µM (inactive).

Turning to `CC(=O)Nc1ccc(S(=O)(=O)NCC(=O)N2CCN(S(=O)(=O)c3cccs3)CC2)cc1`, the IC50 in assay [2] and in assay [3] was > 66 µM (inactive) throughout.

As for `O=C(Nc1ccc(Cl)cc1)C1c2cccc[n+]2CC(=O)N1Cc1ccc2c(c1)OCO2` (stereo unspecified), the EC50 on Protein RecA is 13.3 µM (active). For the same compound, the AC50 in assay [1] was > 380 µM (inactive).

Take `COCCOC(=O)C1=C(C)N=C2SCCC(=O)N2C1c1ccc(OC(=O)c2ccco2)cc1` (stereo unspecified): the half-maximal effective concentration (EC50) at Protein RecA was 14 µM (active). The AC50 in assay [1] was 19.8 µM (active).

In the case of `Cn1nnnc1SCC(=O)N1CCN(c2cccc(Cl)c2)CC1`, the IC50 on Protein skinhead-1 is > 100 µM (inactive).

Turning to `CCCCC1OC23CCCCC2C(C#N)(C(=N)O3)C1(C#N)C#N` (stereo unspecified), the IC50 in assay [2] and in assay [3] was > 66 µM (inactive) each time.

With `N#CC1=C(N)Oc2[nH]nc(-c3cccs3)c2C1c1cccs1` (stereo unspecified), the EC50 at Protein RecA was 2.02 µM (active). Further, in assay [1], the AC50 is 2.63 µM (active).
